Results as given in paper PMC12862769 (ACS infectious diseases, 2025).
≈ marks a conversion by molar mass, not a printed value. Where two headings read alike, the source gives them in different places.

How the values were obtained:
E. faecalis HM-201 = assay: MIC assay; format: cell-based
E. faecalis HM-934 = assay: MIC assay; format: cell-based
E. faecalis NR-31970 = assay: MIC assay; format: cell-based
E. faecium ATCC 700221 = assay: MIC assay; format: cell-based
E. faecium HM-952 = assay: MIC assay; format: cell-based
E. faecium HM-965 = assay: MIC assay; format: cell-based
E. faecium HM-970 = assay: MIC assay; format: cell-based
E. faecium NR-31909 [1] = assay: MIC assay; format: cell-based
E. faecium NR-31912 = assay: MIC assay; format: cell-based
E. faecium NR-31933 = assay: MIC assay; format: cell-based
E. faecium NR-31937 = assay: MIC assay; format: cell-based
E. faecium NR-31954 = assay: MIC assay; format: cell-based
E. faecium NR-32053 = assay: MIC assay; format: cell-based
E. faecium NR-32094 = assay: MIC assay; format: cell-based
E. avium ATCC 14025 = assay: MIC assay; format: cell-based
[2] = tested on: E. casseliflavus ATCC 700327; assay: MIC assay; format: cell-based
E. durans ATCC 11576 = assay: MIC assay; format: cell-based
E. gallinarum ATCC 49373 = assay: MIC assay; format: cell-based
E. hirae ATCC 10541 = assay: MIC assay; format: cell-based
E. raffinosus ATCC 49464 = assay: MIC assay; format: cell-based
[3] = tested on: E. saccharolyticus ATCC 43076; assay: MIC assay; format: cell-based
[4] = tested on: Listeria Monocytogenes ATCC 19111; assay: MIC assay; format: cell-based
[5] = tested on: Staphylococcus aureus USA300; assay: MIC assay; format: cell-based
[6] = tested on: Staphylococcus epidermidis NRS101; assay: MIC assay; format: cell-based
[7] = tested on: Bacillus subtilis ATCC11774; assay: MIC assay; format: cell-based
[8] = tested on: E. faecalis and E. faecium strains; assay: MIC assay, panel of 25 E. faecalis and E. faecium strains; format: cell-based
[9] = tested on: all tested Enterococcus strains; assay: MIC assay, all tested Enterococcus strains; format: cell-based
E. faecium NR-31909 [10] = assay: Multi-step resistance selection assay; format: cell-based; conditions: starting passage 13
E. faecium NR-31909 [11] = assay: E. faecium septicemic peritonitis mouse model; format: in vivo, BALB/c mice
mouse gut microbiome = assay: Mouse gut microbiome diversity in fecal pellets; format: in vivo, C57BL/6 mice; conditions: 20 mg/kg PO QD; CAI0019 days 7 or 14, linezolid day 7, vs pre-treatment
E. faecalis HM-334 = conditions: cited from earlier work
E. faecalis HM-335 = conditions: cited from earlier work
E. faecalis NR-31971 = conditions: cited from earlier work
E. faecalis NR-31972 = conditions: cited from earlier work
E. faecium HM-968 = conditions: cited from earlier work
E. faecium NR-28978 = conditions: cited from earlier work
E. faecium NR-31903 = conditions: cited from earlier work
E. faecium NR-31914 = conditions: cited from earlier work
E. faecium NR-31916 = conditions: cited from earlier work
E. faecium NR-32052 = conditions: cited from earlier work
E. faecium NR-32065 = conditions: cited from earlier work
[12] = 5% CO2 atmosphere at 37° C, no CAs, expresses MpsAB homologs

`CC(=O)NC[C@H]1CN(c2ccc(N3CCOCC3)c(F)c2)C(=O)O1` [LNZ, linezolid] gave an MIC (E. faecalis HM-201; 5% CO2 atmosphere at 37° C) of 2.96 µM (≈ 0.999 µg/mL), an MIC (E. faecalis HM-201; Enterococcus faecalis, HM201) of 2.96 µM (≈ 0.999 µg/mL) and an MIC (E. faecalis HM-934; 5% CO2 atmosphere at 37° C) of 2.96 µM (≈ 0.999 µg/mL). It also gave an MIC (E. faecalis HM-934; Enterococcus faecalis, HM934) of 2.96 µM (≈ 0.999 µg/mL), an MIC (E. faecalis NR-31970; 5% CO2 atmosphere at 37° C) of 2.96 µM (≈ 0.999 µg/mL) and an MIC (E. faecalis NR-31970; Enterococcus faecalis, NR31970) of 2.96 µM (≈ 0.999 µg/mL). For the same molecule, the MIC (E. faecium ATCC 700221; 5% CO2 atmosphere at 37° C) was 2.96 µM (≈ 0.999 µg/mL), the MIC (E. faecium ATCC 700221; Enterococcus faecium, ATCC700221) was 2.96 µM (≈ 0.999 µg/mL) and the MIC (E. faecium HM-952; 5% CO2 atmosphere at 37° C) was 2.96 µM (≈ 0.999 µg/mL). It also gave an MIC (E. faecium HM-952; Enterococcus faecium, HM952) of 2.96 µM (≈ 0.999 µg/mL), an MIC (E. faecium HM-965; 5% CO2 atmosphere at 37° C) of 2.96 µM (≈ 0.999 µg/mL) and an MIC (E. faecium HM-965; Enterococcus faecium, HM965) of 2.96 µM (≈ 0.999 µg/mL). For the same molecule, the MIC (E. faecium HM-970; 5% CO2 atmosphere at 37° C) was 2.96 µM (≈ 0.999 µg/mL), the MIC (E. faecium HM-970; Enterococcus faecium, HM970) was 2.96 µM (≈ 0.999 µg/mL) and the MIC (E. faecium NR-31909 [1]; 5% CO2 atmosphere at 37° C) was 2.96 µM (≈ 0.999 µg/mL). It also gave an MIC (E. faecium NR-31909 [1]; Enterococcus faecium, NR31909) of 2.96 µM (≈ 0.999 µg/mL), an MIC (E. faecium NR-31912; 5% CO2 atmosphere at 37° C) of 2.96 µM (≈ 0.999 µg/mL) and an MIC (E. faecium NR-31912; Enterococcus faecium, NR31912) of 2.96 µM (≈ 0.999 µg/mL). It also gave an MIC (E. faecium NR-31933; 5% CO2 atmosphere at 37° C) of 2.96 µM (≈ 0.999 µg/mL), an MIC (E. faecium NR-31933; Enterococcus faecium, NR31933) of 2.96 µM (≈ 0.999 µg/mL) and an MIC (E. faecium NR-31937; 5% CO2 atmosphere at 37° C) of 2.96 µM (≈ 0.999 µg/mL). For the same molecule, the MIC (E. faecium NR-31937; Enterococcus faecium, NR31937) was 2.96 µM (≈ 0.999 µg/mL), the MIC (E. faecium NR-31954; 5% CO2 atmosphere at 37° C) was 2.96 µM (≈ 0.999 µg/mL) and the MIC (E. faecium NR-31954; Enterococcus faecium, NR31954) was 2.96 µM (≈ 0.999 µg/mL). It also gave an MIC (E. faecium NR-32053; 5% CO2 atmosphere at 37° C) of 2.96 µM (≈ 0.999 µg/mL), an MIC (E. faecium NR-32053; Enterococcus faecium, NR32053) of 2.96 µM (≈ 0.999 µg/mL) and an MIC (E. faecium NR-32094; 5% CO2 atmosphere at 37° C) of 1.48 µM (≈ 0.499 µg/mL). The MIC (E. faecium NR-32094; Enterococcus faecium, NR32094) was 1.48 µM (≈ 0.499 µg/mL), the MIC (E. avium ATCC 14025; 5% CO2 atmosphere at 37° C) was 2.96 µM (≈ 0.999 µg/mL) and the MIC (E. avium ATCC 14025; Enterococcus avium, ATCC14025) was 2.96 µM (≈ 0.999 µg/mL). The MIC ([2]; 5% CO2 atmosphere at 37° C) was 2.96 µM (≈ 0.999 µg/mL), the MIC ([2]; Enterococcus casseliflavus, ATCC700327) was 2.96 µM (≈ 0.999 µg/mL) and the MIC (E. durans ATCC 11576; 5% CO2 atmosphere at 37° C) was 2.96 µM (≈ 0.999 µg/mL). It also gave an MIC (E. durans ATCC 11576; Enterococcus durans, ATCC11576) of 2.96 µM (≈ 0.999 µg/mL), an MIC (E. gallinarum ATCC 49373; 5% CO2 atmosphere at 37° C) of 2.96 µM (≈ 0.999 µg/mL) and an MIC (E. gallinarum ATCC 49373; Enterococcus gallinarum, ATCC49373|GALLINARUM) of 2.96 µM (≈ 0.999 µg/mL). It also gave an MIC (E. hirae ATCC 10541; 5% CO2 atmosphere at 37° C) of 2.96 µM (≈ 0.999 µg/mL), an MIC (E. hirae ATCC 10541; Enterococcus hirae, ATCC10541) of 2.96 µM (≈ 0.999 µg/mL) and an MIC (E. raffinosus ATCC 49464; 5% CO2 atmosphere at 37° C) of 2.96 µM (≈ 0.999 µg/mL). It also gave an MIC (E. raffinosus ATCC 49464; Enterococcus raffinosus, ATCC49464) of 2.96 µM (≈ 0.999 µg/mL), an MIC [3] of 2.96 µM (≈ 0.999 µg/mL) and an MIC ([3]; 5% CO2 atmosphere at 37° C) of 2.96 µM (≈ 0.999 µg/mL). For the same molecule, the MIC ([4]; 5% CO2 atmosphere at 37° C, encodes only α-CA, no MpsAB homologs) was 2.96 µM (≈ 0.999 µg/mL), the MIC ([4]; Listeria monocytogenes, ATCC19111) was 2.96 µM (≈ 0.999 µg/mL) and the MIC [5, 12] was 1.48 µM (≈ 0.499 µg/mL). It also gave an MIC ([5]; Staphylococcus aureus, USA300) of 1.48 µM (≈ 0.499 µg/mL), an MIC [6, 12] of 2.96 µM (≈ 0.999 µg/mL) and an MIC ([6]; Staphylococcus epidermidis, NRS101) of 2.96 µM (≈ 0.999 µg/mL). It also gave an MIC ([7]; 5% CO2 atmosphere at 37° C, encodes both MpsAB and CAs) of 1.48 µM (≈ 0.499 µg/mL), an MIC ([7]; Bacillus subtilis, ATCC11774) of 1.48 µM (≈ 0.499 µg/mL) and an MIC50 ([8]; read-out: Ef MIC50) of 2.96 µM (≈ 0.999 µg/mL). For the same molecule, the MIC90 ([8]; read-out: Ef MIC90) was 2.96 µM (≈ 0.999 µg/mL), the “MIC shift in the presence of CO2” value ([9]; 5% CO2 versus ambient air) was “no MIC shift” and the MIC50 ([9]; Enterococcus, read-out: All Enterococci spp. MIC50) was 2.96 µM (≈ 0.999 µg/mL). The MIC90 ([9]; Enterococcus, read-out: All Enterococci spp. MIC90) was 2.96 µM (≈ 0.999 µg/mL), the MIC increase (E. faecium NR-31909 [10]) was 2 fold MIC and the “survival (mice rescued)” value (E. faecium NR-31909 [11]; 20 mg/kg PO once-daily for three days, n = 6/group) was 83%. The “reduction of VRE bioburden compared to vehicle” value (E. faecium NR-31909 [11]; kidney, liver and spleen, each tissue, 20 mg/kg PO QD three days) was “at least 2 Log10 CFU/mL”, the “reduction of VRE bioburden” value (E. faecium NR-31909 [11]; kidney, liver and spleen, three-day treatment) was greater than 99% and the “change in microbiome diversity in fecal samples” value (mouse gut microbiome) was “no significant change”. For the same molecule, the MIC (E. faecalis HM-334; 5% CO2 atmosphere at 37° C) was 2.96 µM (≈ 0.999 µg/mL), the MIC (E. faecalis HM-334; ambient air at 37° C) was 2.96 µM (≈ 0.999 µg/mL) and the MIC (E. faecalis HM-335; 5% CO2 atmosphere at 37° C) was 2.96 µM (≈ 0.999 µg/mL). For the same molecule, the MIC (E. faecalis HM-335; ambient air at 37° C) was 1.48 µM (≈ 0.499 µg/mL), the MIC (E. faecalis NR-31971; 5% CO2 atmosphere at 37° C) was 2.96 µM (≈ 0.999 µg/mL) and the MIC (E. faecalis NR-31971; ambient air at 37° C) was 2.96 µM (≈ 0.999 µg/mL). For the same molecule, the MIC (E. faecalis NR-31972; 5% CO2 atmosphere at 37° C) was 2.96 µM (≈ 0.999 µg/mL), the MIC (E. faecalis NR-31972; ambient air at 37° C) was 1.48 µM (≈ 0.499 µg/mL) and the MIC (E. faecium HM-968; 5% CO2 atmosphere at 37° C) was 2.96 µM (≈ 0.999 µg/mL). The MIC (E. faecium HM-968; ambient air at 37° C) was 1.48 µM (≈ 0.499 µg/mL), the MIC (E. faecium NR-28978; 5% CO2 atmosphere at 37° C) was 2.96 µM (≈ 0.999 µg/mL) and the MIC (E. faecium NR-28978; ambient air at 37° C) was 2.96 µM (≈ 0.999 µg/mL). For the same molecule, the MIC (E. faecium NR-31903; 5% CO2 atmosphere at 37° C) was 47.4 µM (≈ 16 µg/mL), the MIC (E. faecium NR-31903; ambient air at 37° C) was 47.4 µM (≈ 16 µg/mL) and the MIC (E. faecium NR-31914; 5% CO2 atmosphere at 37° C) was 2.96 µM (≈ 0.999 µg/mL). The MIC (E. faecium NR-31914; ambient air at 37° C) was 2.96 µM (≈ 0.999 µg/mL), the MIC (E. faecium NR-31916; 5% CO2 atmosphere at 37° C) was 2.96 µM (≈ 0.999 µg/mL) and the MIC (E. faecium NR-31916; ambient air at 37° C) was 2.96 µM (≈ 0.999 µg/mL). For the same molecule, the MIC (E. faecium NR-32052; 5% CO2 atmosphere at 37° C) was 1.48 µM (≈ 0.499 µg/mL), the MIC (E. faecium NR-32052; ambient air at 37° C) was 1.48 µM (≈ 0.499 µg/mL) and the MIC (E. faecium NR-32065; 5% CO2 atmosphere at 37° C) was 1.48 µM (≈ 0.499 µg/mL). The MIC (E. faecium NR-32065; ambient air at 37° C) was 0.74 µM (≈ 0.25 µg/mL).
